This is an account of results in patent publication US7786042B2, “Fluridone as an anti-inflammatory agent” (Universita' Degli Studi Di Genova, priority 2005, dated 2010).

What all share (assay type): cell-based
Test [1] has as its system human granulocytes. Put plainly: Intracellular calcium [Ca2+]i in granulocytes. Here is the method: Granlocytes were isolated by density gradient centrifugation from the peripheral blood of healthy donors, after informed consent. Contaminating erythrocytes were removed by hypotonic lysis. […] The increase of [cADPR]i in turn induces a progressive rise of [Ca^2+]i, from a basal value of 50±2 nM to 170±25 nM after 10 min from the addition of 10 μM ABA (n=4). […] The increase of the [Ca^2+]i induced by ABA in granulocytes is in turn responsible for activation of several functional activities typical of these cells. The functional effects induced by ABA (at concentrations ranging between 0.2 and 20 μM) in granulocytes include stimulation of the production of reactive oxygen species (ROS), measured through the cytochrome c […] (FIG. 2A), and of nitric oxide (NO), measured as accumulation of nitrite, the end-product of NO […] (FIG. 2B).
(Calcium flux is commonly read through the fluorescence of an indicator in the cells.)

Test [2] has as its system human granulocytes. The test can be described thus: NO release by granulocytes (nitrite, Griess). A general note: Griess reagent forms a coloured azo dye with nitrite.
Procedure: Granulocytes were resuspended at 5×10^6/ml in HBSS and 225 μl of the cell suspension were added to 50 μl of 0.2 mM cytochrome c and were incubated for 30 min at 37° C. in the absence (control) or in the presence of 250 nM or 20 μM ABA, the latter concentration without or with 1 mM EDTA, 20 mM nicotinamide or 0.1 mM 8-Br-cADPR. […] The results are expressed as the production relative to control cells, not stimulated with ABA, and are the mean ±SD from 5 experiments.
The method used to determine NO released from the cells into the medium exploits the spontaneous conversion of NO to nitrates and the subsequent enzymatic reduction of nitrates to nitrites by the enzyme nitrate reductase. […] Granulocytes (60×10^6/well) or murine microglia cells N9 (2×10^5/well) were incubated in 24-well plates for 60 min at 37° C. in the presence of ABA at different concentrations. The supernatants were then centrifuged and diluted with an equal volume of Griess reagent (0.1% naphthyl-ethylenediamine dihydrochloride in distilled water, 1% sulphanylamide in 5% concentrated H3PO4). Absorbance at 545 nm was estimated after 10 min and the nitrite concentration was calculated using a standard curve, generated in parallel with known amounts of NaNO2.
Test [3] relates to human granulocytes. The test can be described thus: Chemotaxis and chemokinesis of granulocytes.
Procedure: Assays were performed using 96-well ChemoTx system microplates with a 3-μm pore size polycarbonate filter (NeuroProbe Inc., Gaithersburg, USA). Cells (granulocytes or murine microglia) were resuspended at 10^7/ml in HBSS, PBS and 5% albumin, 39:16:1 (chemotaxis buffer, CB). In order to evaluate the chemoattractant effect of ABA, hormone concentrations ranging from 50 nM to 20 μM were added in CB in the bottom wells and 25 μl cell suspensions were placed on top of the filter. To evaluate a possible stimulatory effect of ABA on spontaneous cell movements (chemokinesis), cells were pre-incubated with or without 20 μM ABA, then washed and placed on top of the filter, in contact with CB. Plates were incubated at 37° C. for 60 min and transmigrated cells were recovered and quantified by fluorimetric assay with Cytox Green. The number of transmigrated cells was calculated by comparison of the measured fluorescence with that of a standard curve, obtained by directly placing a serial dilution of cells in the bottom wells. The results of the chemotaxis experiments are expressed as “chemotaxis index” (CI): CI=number of cells migrated towards chemoattractant/number of cells migrated towards CB
Test [4] deals with human granulocytes. The test can be described thus: ROS production by granulocytes (cytochrome c assay).
Procedure: Granulocytes were resuspended at 5×10^6/ml in HBSS and 225 μl of the cell suspension were added to 50 μl of 0.2 mM cytochrome c and were incubated for 30 min at 37° C. in the absence (control) or in the presence of 250 nM or 20 μM ABA, the latter concentration without or with 1 mM EDTA, 20 mM nicotinamide or 0.1 mM 8-Br-cADPR. The amount of ROS (panel A) or of NO (panel B) in the cell supernatant was measured as described in Materials and Methods. The results are expressed as the production relative to control cells, not stimulated with ABA, and are the mean ±SD from 5 experiments.
Release of superoxide (O2^−) by human granulocytes was quantified by a spectrophotometric assay of cytochrome c reduction (Cohen, J Clin Invest 1978). Granulocytes were resuspended in HBSS (at 5×10^6 cells/ml) and 225 μl of the cell suspension was incubated for 30 min at 37° C. with 50 μl cytochrome c (0.2 mM) in the absence (control) or in the presence of ABA at different concentrations. Then, cells were centrifuged at 5,000×g for 15 s and the absorbance of the supernatants was recorded at 550 nm (λmax for reduced cytocrome c).

`O=C(O)CN(CCOCCOCCN(CC(=O)O)CC(=O)O)CC(=O)O` [EGTA]: in the test on human granulocytes [1], the “effect on the ABA-induced increase of [Ca2+]i” value was “almost completely prevents”.

Turning to `N=c1c2nc(Br)n3c2ncn1C1OC(COP(=O)(O)OP(=O)(O)OCC2OC3C(O)C2O)C(O)C1O` (stereo not shown) [8-Br-cADPR, reference compound], the “effect on ABA-induced NO production” value in the test with human granulocytes [2] is “inhibited”. Further, the “inhibition of the ABA-induced increase of [Ca2+]i” value in the test on human granulocytes [1] is “approx. 60%”. The “effect on ABA-induced chemokinesis and chemotaxis” value in the test on human granulocytes [3] is given as “inhibited”. For the same compound, the “effect on ABA-induced ROS production” value in the test with human granulocytes [4] is listed as “inhibited”.

`O=C(O)CN(CCN(CC(=O)O)CC(=O)O)CC(=O)O` [EDTA, reference compound]: the “effect on ABA-induced NO production” value with human granulocytes [2] is on record as “inhibited”. The “effect on ABA-induced ROS production” value in the test on human granulocytes [4] was “inhibited”.

As to `NC(=O)c1cccnc1` [nicotinamide, reference compound], in the test on human granulocytes [2], the “effect on ABA-induced NO production” value is “inhibited”. Moreover, the “effect on ABA-induced chemokinesis and chemotaxis” value in the test with human granulocytes [3] was “inhibited”. Also, in the test with human granulocytes [4], the “effect on ABA-induced ROS production” value is “inhibited”.
